Measurements from PubChem BioAssay (NCI).
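Interpolation was linear, between the two tested concentrations surrounding the appropriate level; five concentrations were tested over 48 hours in 96-well plates. GI50 = concentration required for 50% inhibition of growth. TGI: total growth inhibition.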

Legend:
Assay in all cases: NCI anticancer screen, dose series, 48 h
NCI-H460 lung = test system: NCI-H460 lung
NCI-H522 lung = test system: NCI-H522 lung
NCI/ADR-RES ovarian = test system: NCI/ADR-RES ovarian
OVCAR-3 ovarian = test system: OVCAR-3 ovarian
OVCAR-4 ovarian = test system: OVCAR-4 ovarian
OVCAR-5 ovarian = test system: OVCAR-5 ovarian
OVCAR-8 ovarian = test system: OVCAR-8 ovarian
PC-3 prostate = test system: PC-3 prostate
RPMI-8226 leukemia = test system: RPMI-8226 leukemia
RXF 393 renal = test system: RXF 393 renal
SF-268 CNS = test system: SF-268 CNS
SF-295 CNS = test system: SF-295 CNS
SF-539 CNS = test system: SF-539 CNS
SK-MEL-2 melanoma = test system: SK-MEL-2 melanoma
SK-MEL-28 melanoma = test system: SK-MEL-28 melanoma
SK-MEL-5 melanoma = test system: SK-MEL-5 melanoma
SK-OV-3 ovarian = test system: SK-OV-3 ovarian
SN12C renal = test system: SN12C renal
SNB-19 CNS = test system: SNB-19 CNS
SNB-75 CNS = test system: SNB-75 CNS
SR leukemia = test system: SR leukemia
SW-620 colon = test system: SW-620 colon
T-47D breast = test system: T-47D breast
TK-10 renal = test system: TK-10 renal
U251 CNS = test system: U251 CNS
UACC-257 melanoma = test system: UACC-257 melanoma
UACC-62 melanoma = test system: UACC-62 melanoma
UO-31 renal = test system: UO-31 renal

C/C=C\C(=O)O[C@@H]1CC2O[C@@H]3C=C(C)C(=O)C[C@]3(C)[C@]1(C)[C@]21CO1
GI50 (NCI-H460 lung): 668 nM
TGI (NCI-H460 lung): 4400 nM
GI50 (NCI-H522 lung): 486 nM
TGI (NCI-H522 lung): 1620 nM
GI50 (NCI/ADR-RES ovarian): 783 nM
TGI (NCI/ADR-RES ovarian): 8300 nM
GI50 (OVCAR-3 ovarian): 783 nM
TGI (OVCAR-3 ovarian): 3080 nM
GI50 (OVCAR-4 ovarian): 632 nM
TGI (OVCAR-4 ovarian): 1930 nM
GI50 (OVCAR-5 ovarian): 796 nM
TGI (OVCAR-5 ovarian): 3820 nM
GI50 (OVCAR-8 ovarian): 756 nM
TGI (OVCAR-8 ovarian): 5490 nM
GI50 (PC-3 prostate): 799 nM
TGI (PC-3 prostate): 8120 nM
GI50 (RPMI-8226 leukemia): 522 nM
TGI (RPMI-8226 leukemia): 1500 nM
GI50 (RXF 393 renal): 499 nM
TGI (RXF 393 renal): 1620 nM
GI50 (SF-268 CNS): 743 nM
TGI (SF-268 CNS): 5450 nM
GI50 (SF-295 CNS): 715 nM
TGI (SF-295 CNS): 4770 nM
GI50 (SF-539 CNS): 622 nM
TGI (SF-539 CNS): 1540 nM
GI50 (SK-MEL-2 melanoma): 468 nM
TGI (SK-MEL-2 melanoma): 1480 nM
GI50 (SK-MEL-28 melanoma): 471 nM
TGI (SK-MEL-28 melanoma): 1560 nM
GI50 (SK-MEL-5 melanoma): 528 nM
TGI (SK-MEL-5 melanoma): 1370 nM
GI50 (SK-OV-3 ovarian): 896 nM
TGI (SK-OV-3 ovarian): 6560 nM
GI50 (SN12C renal): 643 nM
TGI (SN12C renal): 3890 nM
GI50 (SNB-19 CNS): 565 nM
TGI (SNB-19 CNS): 3330 nM
GI50 (SNB-75 CNS): 470 nM
TGI (SNB-75 CNS): 1960 nM
GI50 (SR leukemia): 670 nM
TGI (SR leukemia): 3040 nM
GI50 (SW-620 colon): 634 nM
TGI (SW-620 colon): 6280 nM
GI50 (T-47D breast): 529 nM
TGI (T-47D breast): 1970 nM
GI50 (TK-10 renal): 664 nM
TGI (TK-10 renal): 2500 nM
GI50 (U251 CNS): 648 nM
TGI (U251 CNS): 5600 nM
GI50 (UACC-257 melanoma): 599 nM
TGI (UACC-257 melanoma): 2110 nM
GI50 (UACC-62 melanoma): 653 nM
TGI (UACC-62 melanoma): 2420 nM
GI50 (UO-31 renal): 712 nM
TGI (UO-31 renal): 4310 nM
